Assay results from PMC4298667, “Chemical and protein structural basis for biological crosstalk between PPARα and COX enzymes” (Journal of Computer-Aided Molecular Design, 2014).
One block for each compound: values may come before it.

Experiments:
COX-1 [1] = molecular target: T1, COX-1 (Homo sapiens, UniProt P23219); assay: microsomal enzyme assay, percent inhibition at […] (marginal, […], at […]); assay type: biochemical; design: gene PTGS1; recombinant human COX-1, microsomes from transfected Sf9 cells
COX-1 [2] = molecular target: T1, COX-1; assay: microsomal enzyme assay, percent inhibition at […] (only […] at […]); assay type: cell-free; design: gene PTGS1; recombinant human COX-1, microsomes from transfected Sf9 cells
COX-1 [3] = molecular target: T1, COX-1; design: gene PTGS1

T1 sequence (P23219 24-599): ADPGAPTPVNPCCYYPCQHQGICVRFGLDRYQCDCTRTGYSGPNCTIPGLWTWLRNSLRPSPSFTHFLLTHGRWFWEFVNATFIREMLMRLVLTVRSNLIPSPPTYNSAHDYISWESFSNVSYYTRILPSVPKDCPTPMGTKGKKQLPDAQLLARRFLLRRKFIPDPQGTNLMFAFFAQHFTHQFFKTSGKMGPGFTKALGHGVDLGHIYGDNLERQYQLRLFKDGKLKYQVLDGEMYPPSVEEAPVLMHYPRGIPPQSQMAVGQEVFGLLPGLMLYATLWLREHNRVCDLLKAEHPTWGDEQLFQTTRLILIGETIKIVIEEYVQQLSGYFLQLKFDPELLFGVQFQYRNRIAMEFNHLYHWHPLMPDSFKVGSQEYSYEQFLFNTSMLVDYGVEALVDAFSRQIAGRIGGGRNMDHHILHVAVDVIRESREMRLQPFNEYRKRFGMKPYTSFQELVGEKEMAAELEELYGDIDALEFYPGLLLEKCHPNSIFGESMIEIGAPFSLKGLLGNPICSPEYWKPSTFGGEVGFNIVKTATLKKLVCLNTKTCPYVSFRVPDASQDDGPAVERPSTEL

inhibition at 250 µM (COX-1 [1]): 14%
Compound: CC(C)(Oc1ccc(Cl)cc1)C(=O)O [clofibric acid]

inhibition at 250 µM (COX-1 [2]): 18%
Compound: Cc1ccc(C)c(OCCCC(C)(C)C(=O)O)c1 [gemfibrozil]

IC50 (COX-1 [3]): 950 µM
Compound: CC(C)(Oc1ccc(C(=O)c2ccc(Cl)cc2)cc1)C(=O)O [fenofibric acid]
